Source: ChEMBL document CHEMBL2146442, “High-affinity and selective dopamine D₃ receptor full agonists” (Bioorg Med Chem Lett, 2012)

Key:
[1] = Displacement of [3H]Spiperone from dopamine D2 like receptor in rat brain homogenates; type: tissue-based
[2] = Displacement of [3H]SCH23390 from dopamine D1 like receptor in rat brain homogenates; type: tissue-based
Rattus norvegicus = organism: Rattus norvegicus; assay: Selectivity ratio of Ki for dopamine D1 like receptor in rat brain homogenates to Ki for dopamine D3 receptor in rat brain homogenates; type: tissue-based
D(3) dopamine receptor [3] = molecular target: D(3) dopamine receptor (Rattus norvegicus, UniProt P19020); assay: Displacement of [3H]-R(+)-7-OHDPAT from dopamine D3 receptor in rat brain homogenates; type: tissue-based
Chain of D(3) dopamine receptor (Rattus norvegicus, UniProt P19020) (P19020 whole entry): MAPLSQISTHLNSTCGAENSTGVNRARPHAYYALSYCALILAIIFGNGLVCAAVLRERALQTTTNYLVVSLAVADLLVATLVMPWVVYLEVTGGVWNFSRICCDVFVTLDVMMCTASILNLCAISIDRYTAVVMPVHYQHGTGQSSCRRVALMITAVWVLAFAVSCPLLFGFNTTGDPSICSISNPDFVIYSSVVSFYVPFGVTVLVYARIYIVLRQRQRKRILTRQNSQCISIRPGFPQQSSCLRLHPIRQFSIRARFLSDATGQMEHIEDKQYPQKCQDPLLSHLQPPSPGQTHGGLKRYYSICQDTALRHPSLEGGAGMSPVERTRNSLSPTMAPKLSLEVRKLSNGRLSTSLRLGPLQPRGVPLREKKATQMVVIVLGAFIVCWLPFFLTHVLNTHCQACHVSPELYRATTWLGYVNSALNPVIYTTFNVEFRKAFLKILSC

[4] = Selectivity ratio of dopamine D1 like receptor to dopamine D3 receptor
[5] = Selectivity ratio of dopamine D2 receptor to dopamine D3 receptor
D(3) dopamine receptor [6] = molecular target: D(3) dopamine receptor (Homo sapiens, UniProt P35462); assay: Agonist activity at human dopamine D3 receptor expressed in CHO cells by mitogenesis assay; type: functional, cell-based
Chain of D(3) dopamine receptor (Homo sapiens, UniProt P35462) (P35462 whole entry): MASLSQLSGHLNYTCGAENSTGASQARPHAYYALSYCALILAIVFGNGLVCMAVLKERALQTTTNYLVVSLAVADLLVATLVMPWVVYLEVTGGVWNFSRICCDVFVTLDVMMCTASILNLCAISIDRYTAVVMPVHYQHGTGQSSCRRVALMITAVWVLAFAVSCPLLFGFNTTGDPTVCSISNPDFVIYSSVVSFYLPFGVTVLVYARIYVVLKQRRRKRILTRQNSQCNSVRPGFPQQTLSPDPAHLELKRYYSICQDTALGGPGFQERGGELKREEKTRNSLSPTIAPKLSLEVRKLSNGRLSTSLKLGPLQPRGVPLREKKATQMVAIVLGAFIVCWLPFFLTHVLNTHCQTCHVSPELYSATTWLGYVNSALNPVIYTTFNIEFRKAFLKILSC

SMILES | Ki [1] [µM] | Ki [2] [µM] | Ratio Ki (Rattus norvegicus) | Ki (D(3) dopamine receptor [3]) [µM] | Selectivity ratio [4] | Selectivity ratio [5] | EC50 (D(3) dopamine receptor [6]) [µM]
CCCN(CC[C@H]1CC[C@H](NC(=O)c2ccc(-n3ccnc3)cc2)CC1)[C@H]1CCc2nc(N)sc2C1 | 0.023 | 37.2 | 19900 | 0.0019 | – | – | –
CCCN(CC[C@H]1CC[C@H](NC(=O)c2ccc(-c3noc(CC)n3)cc2)CC1)[C@H]1CCc2nc(N)sc2C1 | 0.328 | 17.7 | 8380 | 0.0021 | – | – | –
CCCN(CC[C@H]1CC[C@H](NS(=O)(=O)c2ccc(OC)cc2)CC1)[C@H]1CCc2nc(N)sc2C1 | 0.038 | 21.3 | 27500 | 0.00078 | – | – | –
O=C(NCCCCN1CCN(c2cccc(Cl)c2Cl)CC1)c1ccc2c(c1)Cc1ccccc1-2 | – | – | – | – | > 1000 | 100 | –
CCCN(CC[C@H]1CC[C@H](NC(=O)c2cccc(-n3cncn3)c2)CC1)[C@H]1CCc2nc(N)sc2C1 | 0.043 | 59.7 | 19900 | 0.003 | – | – | –
CCCN(CC[C@H]1CC[C@H](NC(=O)c2cccc(-n3ccnc3)c2)CC1)[C@H]1CCc2nc(N)sc2C1 | 0.032 | 24.7 | 21800 | 0.0011 | – | – | –
CCCN(CC[C@H]1CC[C@H](NS(=O)(=O)c2cccnc2Cl)CC1)[C@H]1CCc2nc(N)sc2C1 | 0.17 | 17.4 | 46300 | 0.00038 | – | – | 0.0015
CCCN(CC[C@H]1CC[C@H](NC(=O)c2ccc(-c3noc(C)n3)cc2)CC1)[C@H]1CCc2nc(N)sc2C1 | 0.442 | 34.6 | 27000 | 0.0013 | – | – | –
CCCN(CC[C@H]1CC[C@H](NS(=O)(=O)c2ccccc2)CC1)[C@H]1CCc2nc(N)sc2C1 | 0.057 | 23.4 | 29700 | 0.00079 | – | – | –
CCCN(CC[C@H]1CC[C@H](NC(=O)c2ccc(-n3cccn3)cc2)CC1)[C@H]1CCc2nc(N)sc2C1 | 0.052 | 14.4 | 4870 | 0.003 | – | – | –
CCCN(CC[C@H]1CC[C@H](NC(=O)c2ccc(-c3noc(C(C)C)n3)cc2)CC1)[C@H]1CCc2nc(N)sc2C1 | 0.47 | 10.9 | 5370 | 0.002 | – | – | –
CCCN(CC[C@H]1CC[C@H](NC(=O)c2cccc3ncccc23)CC1)[C@H]1CCc2nc(N)sc2C1 | 0.072 | 44 | 27100 | 0.0016 | – | – | –
CCCN(CC[C@H]1CC[C@H](NC(=O)c2ccccc2-n2cccn2)CC1)[C@H]1CCc2nc(N)sc2C1 | 0.045 | 46.9 | 23800 | 0.002 | – | – | –
O=C(NC/C=C/CN1CCN(c2cccc(Cl)c2Cl)CC1)c1ccc(-c2ccccn2)cc1 | – | – | – | – | > 1000 | 100 | –
CCCN(CC[C@H]1CC[C@H](NC(=O)c2ccc(-n3cncn3)cc2)CC1)[C@H]1CCc2nc(N)sc2C1 | 0.056 | 14 | 5960 | 0.0024 | – | – | –
CCCN(CC[C@H]1CC[C@H](NS(=O)(=O)c2ccc(Cl)cc2)CC1)[C@H]1CCc2nc(N)sc2C1 | 0.071 | 8.29 | 8750 | 0.00095 | – | – | –
CCCN(CC[C@H]1CC[C@H](NS(=O)(=O)c2cccc(F)c2)CC1)[C@H]1CCc2nc(N)sc2C1 | – | 10.4 | – | 0.00072 | – | – | –
CCCN[C@H]1CCc2nc(N)sc2C1 [PRAMIPEXOLE] | – | > 100 | – | – | – | – | –
CCCN(CC[C@H]1CC[C@H](NC(=O)c2cccc3cnccc23)CC1)[C@H]1CCc2nc(N)sc2C1 | 0.064 | 26.4 | 4500 | 0.0059 | – | – | –
CCCN(CC[C@H]1CC[C@H](NS(=O)(=O)c2cnccc2Cl)CC1)[C@H]1CCc2nc(N)sc2C1 | – | 10.7 | – | 0.00093 | – | – | –
COc1ccccc1N1CCN(CC(O)CCNC(=O)c2cc3ccccc3[nH]2)CC1 (stereo unspecified) | – | – | – | – | > 1000 | 100 | –
CCCN(CC[C@H]1CC[C@H](NC(=O)c2ccc(-c3noc(C4CC4)n3)cc2)CC1)[C@H]1CCc2nc(N)sc2C1 | 0.633 | 11.4 | 3240 | 0.0035 | – | – | –
CCCN(CC[C@H]1CC[C@H](NC(=O)/C=C/c2ccccc2F)CC1)[C@H]1CCc2nc(N)sc2C1 | 0.092 | 10 | 3510 | 0.0029 | – | – | –
O=C(NCC[C@@H](O)CN1CCN(c2cccc(Cl)c2Cl)CC1)c1cc2ccccc2[nH]1 | – | – | – | – | > 1000 | 100 | –
CCCN(CC[C@H]1CC[C@H](NC(=O)c2ccc3ccccc3n2)CC1)[C@H]1CCc2nc(N)sc2C1 | 0.088 | 11.3 | 6050 | 0.0016 | – | – | –
CCCN(CCN1CCN(c2ccc(-c3ccccc3)cc2)CC1)[C@H]1CCc2nc(N)sc2C1 | – | – | – | – | > 1000 | 100 | –

Results, then the compound that gave them:

Ki [1] [µM] | Ki [2] [µM] | Ratio Ki (Rattus norvegicus) | Ki (D(3) dopamine receptor [3]) [µM] | Selectivity ratio [4] | Selectivity ratio [5] | EC50 (D(3) dopamine receptor [6]) [µM] | SMILES
0.052 | 5.77 | 4640 | 0.0012 | – | – | – | CCCN(CC[C@H]1CC[C@H](NC(=O)/C=C/c2cccc(Cl)c2)CC1)[C@H]1CCc2nc(N)sc2C1
0.027 | 4.03 | 1600 | 0.0025 | – | – | – | CCCN(CC[C@H]1CC[C@H](NC(=O)/C=C/c2ccc(Cl)cc2)CC1)[C@H]1CCc2nc(N)sc2C1
0.122 | 8.89 | 953 | 0.0093 | – | – | – | CCCN(CC[C@H]1CC[C@H](NC(=O)/C=C/c2cccc(OC)c2)CC1)[C@H]1CCc2nc(N)sc2C1
0.028 | 8.19 | 12900 | 0.00063 | – | – | – | CCCN(CC[C@H]1CC[C@H](NS(=O)(=O)c2ccc(Cl)nc2)CC1)[C@H]1CCc2nc(N)sc2C1
0.075 | 1.8 | 44 | 0.041 | – | – | – | CCCN(CC[C@H]1CC[C@H](NS(=O)(=O)c2ccc(-c3ccccc3)cc2)CC1)[C@H]1CCc2nc(N)sc2C1
0.03 | 5.44 | 4650 | 0.0012 | – | – | – | CCCN(CC[C@H]1CC[C@H](NC(=O)/C=C/c2ccccc2Cl)CC1)[C@H]1CCc2nc(N)sc2C1
0.101 | 3.15 | 626 | 0.005 | – | – | – | CCCN(CC[C@H]1CC[C@H](NS(=O)(=O)c2ccc(C(C)(C)C)cc2)CC1)[C@H]1CCc2nc(N)sc2C1
0.014 | 3.69 | 2430 | 0.0015 | – | – | – | CCCN(CC[C@H]1CC[C@H](NS(=O)(=O)c2ccc3ccccc3c2)CC1)[C@H]1CCc2nc(N)sc2C1
0.062 | 8.4 | 9470 | 0.00089 | – | – | – | CCCN(CC[C@H]1CC[C@H](NS(=O)(=O)c2cccc(C)c2)CC1)[C@H]1CCc2nc(N)sc2C1
0.359 | 9.94 | 13700 | 0.00073 | – | – | 0.0043 | CCCN(CC[C@H]1CC[C@H](NC(=O)c2cccc(-c3noc(C)n3)c2)CC1)[C@H]1CCc2nc(N)sc2C1
0.031 | 4.67 | 3160 | 0.0015 | – | – | – | CCCN(CC[C@H]1CC[C@H](NS(=O)(=O)c2cccc3ccccc23)CC1)[C@H]1CCc2nc(N)sc2C1
0.08 | 6.61 | 666 | 0.0099 | – | – | – | CCCN(CC[C@H]1CC[C@H](NC(=O)/C=C/c2cccc(F)c2)CC1)[C@H]1CCc2nc(N)sc2C1
0.094 | 8.03 | 1200 | 0.0067 | – | – | – | CCCN(CC[C@H]1CC[C@H](NC(=O)/C=C/c2ccc(OC)cc2)CC1)[C@H]1CCc2nc(N)sc2C1
0.133 | 8.15 | 1810 | 0.0045 | – | – | – | CCCN(CC[C@H]1CC[C@H](NS(=O)(=O)c2ccc(C(C)C)cc2)CC1)[C@H]1CCc2nc(N)sc2C1
– | 9.48 | – | 0.00068 | – | – | – | CCCN(CC[C@H]1CC[C@H](NS(=O)(=O)c2ccccc2Cl)CC1)[C@H]1CCc2nc(N)sc2C1
0.102 | 7.92 | 983 | 0.0081 | – | – | – | CCCN(CC[C@H]1CC[C@H](NC(=O)/C=C/c2ccccc2OC)CC1)[C@H]1CCc2nc(N)sc2C1
– | 5.55 | – | 0.0011 | – | – | – | CCCN(CC[C@H]1CC[C@H](NS(=O)(=O)c2cccc(Cl)c2)CC1)[C@H]1CCc2nc(N)sc2C1
0.066 | 4.67 | 4670 | 0.001 | – | – | – | CCCN(CC[C@H]1CC[C@H](NC(=O)/C=C/c2ccc(F)cc2)CC1)[C@H]1CCc2nc(N)sc2C1
0.491 | 5 | 3450 | 0.0015 | – | – | – | CCCN(CC[C@H]1CC[C@H](NC(=O)c2cccc(-c3noc(CC)n3)c2)CC1)[C@H]1CCc2nc(N)sc2C1
